Columns and labels:
[1] = test system: PKC; test: PKC activity assay in flank organ hair follicle homogenate (32P phosphorylation of acetylated-myelin basic protein); type: biochemical, Golden Syrian hamster
Protocol: PKC activity was assayed in hair follicles isolated from flank organs using a commercial assay kit obtained from GIBCO BRL (Gaithersburg, Md.). The assay is based on the phosphorylation (incorporation of ^32 -P into) of acetylated-myelin basic protein. After isolation, the flank organ hair follicles were washed in phosphate-buffered saline and homogenized in a buffer containing 20 mM Tris, pH 7.5, 0.5 mM EDTA, 0.5% Triton X-100, 10 mM β-mercaptoethanol, and 25 μg/each of the protease inhibitors aprotinin and leupeptin. The hair follicle homogenate was added to the PKC reaction mixture at a final concentration of 10-20 μg/assay. The assay also included buffer, H2 O, phospholipid. The assay was performed in the presence or absence of select PKC inhibitors. The reaction mixture volume was 50 μl, the ^32 P-ATP substrate was added in a volume of 10 μl. The reaction proceeded at 32° for 15 minutes, whereupon a 16.3 μL aliquot was removed from the reaction mixture and spotted onto a paper filter. Filters were washed twice in 1% phosphoric acid with gentle shaking for 5 minutes. Filters were then washed twice in H2 O and placed in scintillation vials. ^32 P-Incorporation, a measure of the enzyme activity, was determined using standard liquid scintillation techniques.

[2] = test system: flank organ hair growth; test: Golden Syrian hamster assay (flank organ hair growth, topical); type: in vivo; conditions: for Hair Mass (mean ± SEM) Treated: treated flank organ; for % Inhibition (of hair growth): vs vehicle-treated side, mean ± SEM
From the text: Male intact Golden Syrian hamsters are considered acceptable models for human beard hair growth in that they display oval shaped flank organs, one on each side, each about 8 mm. in major diameter, which grow thick black and coarse hair similar to human beard hair. These organs produce hair in response to androgens in the hamster. To evaluate the effectiveness of a particular PKC inhibitor, the flank organs of each of a group of hamsters are depilated by applying a thioglycolate based chemical depilatory (Surgex). To one organ of each animal 10-25 μl. of vehicle alone once a day is applied, while to the other organ of each animal an equal amount of vehicle containing a PKC inhibitor is applied. After thirteen applications (one application per day for five days a week), the flank organs are shaved and the amount of recovered hair (hair mass) from each is weighed. Percent-reduction of hair growth is calculated by subtracting the hair mass (mg) value of the test compound treated side from the hair mass value of the vehicle treated side; the delta value obtained is then divided by the hair mass value of the vehicle treated side, and the resultant number is multiplied by 100.
The above-described assay will be referred to herein as the "Golden Syrian hamster" assay.

[3] = dose 7.5% in vehicle B, pH 7.5, thirteen applications
[4] = dose 10% in vehicle C, pH 5.5, thirteen applications
[5] = dose 10% in vehicle A, thirteen applications, pH differs per compound (4.0-8.5)

Row | Structure (SMILES) | Hair Mass (mean ± SEM) Treated [2, 5] | % Inhibition (of hair growth) [2, 5] | further results
1 | CC1(C)[C@@H](O)CC[C@]2(C)[C@H]3C(=O)C=C4[C@@H]5C[C@@](C)(C(=O)O)CC[C@]5(C)CC[C@@]4(C)[C@]3(C)CC[C@@H]12 [18β-Glycyrrhetinic acid] |  |  | inhibition of PKC activity ([1]; at 500 μM): 52%; Hair Mass (mean ± SEM) Treated [2, 3]: 1.07 ± .10 mg; % Inhibition (of hair growth) [2, 3]: 44 ± 6%
2 | COc1cc(/C=C/C(=O)CC(=O)/C=C/c2ccc(O)c(OC)c2)ccc1O [Curcumin] |  |  | Hair Mass (mean ± SEM) Treated [2, 4]: 0.55 ± .11 mg; % Inhibition (of hair growth) [2, 4]: 68 ± 5%
3 | CC1(C)[C@@H](O[C@H]2O[C@H](C(=O)O)[C@@H](O)[C@H](O)[C@H]2O[C@@H]2O[C@H](C(=O)O)[C@@H](O)[C@H](O)[C@H]2O)CC[C@]2(C)[C@H]3C(=O)C=C4[C@@H]5C[C@@](C)(C(=O)O)CC[C@]5(C)CC[C@@]4(C)[C@]3(C)CC[C@@H]12 [Glycyrrhetinic acid glycoside] | 0.94 ± .17 mg | 46 ± 10% | inhibition of PKC activity ([1]; at 200 μM): ~100%
4 | CC1CNCCN1S(=O)(=O)c1cccc2cnccc12 (stereo not drawn) [H-7, 1(5-isoquinolinylsulfonyl)-2-methylpiperazine] | 0.81 ± .08 mg | 54 ± 3% | inhibition of PKC activity ([1]; at 200 μM): 86%
5 | CN(C)CCCN1c2ccccc2CCc2ccccc21 [Imipramine] | 0.94 ± .18 mg | 38 ± 5% | 
6 | CCCCCCCCCCCCCCCC(=O)OC[C@H](O)[C@H]1OC(=O)C(O)=C1O [L-Ascorbic acid 6-palmitate] | 1.48 ± .14 mg | 46 ± 5% | 
7 | Cc1ccc(N(CC2=NCCN2)c2cccc(O)c2)cc1 [Phentolamine] | 1.61 ± .22 mg | 19 ± 9% | 
8 | CSc1ccc2c(c1)N(CCC1CCCCN1C)c1ccccc1S2 (stereo not drawn) [Thioridazine] | 0.74 ± .07 mg | 68 ± 4% | 
9 | CN1CCN(CCCN2c3ccccc3Sc3ccc(C(F)(F)F)cc32)CC1 [Trifluoperizine] | 1.03 ± .16 mg | 56 ± 6% | inhibition of PKC activity ([1]; at 500 μM): 42%
10 | COc1ccc(CCN(C)CCCC(C#N)(c2ccc(OC)c(OC)c2)C(C)C)cc1OC (stereo not drawn) [Verapamil] | 0.43 ± .05 mg | 69 ± 5% | 

From US5554608A, “Inhibition of hair growth” (priority 1994, dated 1996)
